Read-outs that look alike come from different tables or passages of the source.
What was measured:
Assay type in all cases: binding
[1] = target: T1, HeLa cell extract proteins (Homo sapiens, UniProt O95714)
T1 construct: endogenous in cells; host or cells: HeLa cell extract

[2] = target: T2, HeLa cell extract proteins (Homo sapiens, UniProt P04083)
T2 construct: endogenous in cells; host or cells: HeLa cell extract
T2 sequence (P04083 1-346): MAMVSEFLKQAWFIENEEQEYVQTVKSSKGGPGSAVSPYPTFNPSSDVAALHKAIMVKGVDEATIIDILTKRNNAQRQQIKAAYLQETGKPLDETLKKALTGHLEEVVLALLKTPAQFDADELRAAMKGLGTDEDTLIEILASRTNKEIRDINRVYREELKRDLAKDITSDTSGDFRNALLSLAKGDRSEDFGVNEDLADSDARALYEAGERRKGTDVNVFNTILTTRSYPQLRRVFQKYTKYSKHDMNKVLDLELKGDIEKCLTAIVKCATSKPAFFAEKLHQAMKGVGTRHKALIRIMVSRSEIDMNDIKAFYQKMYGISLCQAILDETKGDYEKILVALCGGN

[3] = target: T3, HeLa cell extract proteins (Homo sapiens, UniProt P17987)
T3 construct: endogenous in cells; host or cells: HeLa cell extract
T3 sequence (P17987 whole entry): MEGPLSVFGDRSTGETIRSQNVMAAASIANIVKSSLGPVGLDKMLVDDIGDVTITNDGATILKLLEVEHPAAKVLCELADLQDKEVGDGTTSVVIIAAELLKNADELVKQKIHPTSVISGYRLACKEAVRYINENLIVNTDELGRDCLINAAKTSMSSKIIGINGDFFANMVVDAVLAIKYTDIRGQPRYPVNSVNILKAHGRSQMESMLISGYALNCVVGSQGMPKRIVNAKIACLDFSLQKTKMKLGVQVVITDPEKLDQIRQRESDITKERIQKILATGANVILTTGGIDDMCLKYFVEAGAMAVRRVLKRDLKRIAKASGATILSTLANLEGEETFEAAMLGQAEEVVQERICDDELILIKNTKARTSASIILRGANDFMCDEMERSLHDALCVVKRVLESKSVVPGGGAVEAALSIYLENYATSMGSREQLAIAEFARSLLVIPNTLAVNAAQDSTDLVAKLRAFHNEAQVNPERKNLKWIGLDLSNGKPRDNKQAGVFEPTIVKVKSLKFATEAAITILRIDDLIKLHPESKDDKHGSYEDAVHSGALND

[4] = target: T4, HeLa cell extract proteins (Homo sapiens, UniProt Q08380)
T4 construct: endogenous in cells; host or cells: HeLa cell extract
T4 sequence (Q08380 19-585): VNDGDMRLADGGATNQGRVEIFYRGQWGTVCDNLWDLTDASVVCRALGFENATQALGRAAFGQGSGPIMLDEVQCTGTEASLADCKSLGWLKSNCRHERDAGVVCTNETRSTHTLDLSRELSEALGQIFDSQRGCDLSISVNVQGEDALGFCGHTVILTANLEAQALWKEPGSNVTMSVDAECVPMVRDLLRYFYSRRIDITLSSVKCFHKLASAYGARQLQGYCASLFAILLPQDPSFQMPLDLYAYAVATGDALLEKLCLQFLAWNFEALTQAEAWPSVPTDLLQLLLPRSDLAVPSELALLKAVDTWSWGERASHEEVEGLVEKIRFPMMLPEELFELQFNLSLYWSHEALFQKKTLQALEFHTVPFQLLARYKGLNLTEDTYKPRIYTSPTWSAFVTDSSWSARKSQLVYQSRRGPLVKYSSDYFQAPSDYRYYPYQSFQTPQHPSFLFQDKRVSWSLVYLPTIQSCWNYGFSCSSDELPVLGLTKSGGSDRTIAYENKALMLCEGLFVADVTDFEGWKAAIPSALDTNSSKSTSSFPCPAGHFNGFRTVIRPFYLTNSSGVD

[5] = target: T5, HeLa cell extract proteins (Homo sapiens, UniProt Q13126)
T5 construct: endogenous in cells; host or cells: HeLa cell extract
T5 sequence (Q13126 1-283): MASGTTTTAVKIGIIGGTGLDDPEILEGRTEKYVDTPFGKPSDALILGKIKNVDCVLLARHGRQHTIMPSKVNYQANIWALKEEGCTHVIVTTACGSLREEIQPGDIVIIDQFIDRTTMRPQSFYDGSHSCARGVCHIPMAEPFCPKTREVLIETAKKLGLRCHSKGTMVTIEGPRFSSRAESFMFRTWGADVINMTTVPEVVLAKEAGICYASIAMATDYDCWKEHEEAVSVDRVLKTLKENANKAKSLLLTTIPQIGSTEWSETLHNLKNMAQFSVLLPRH

[6] = target: T6, HeLa cell extract proteins (Homo sapiens, UniProt Q15293)
T6 construct: endogenous in cells; host or cells: HeLa cell extract
T6 sequence (Q15293 30-331): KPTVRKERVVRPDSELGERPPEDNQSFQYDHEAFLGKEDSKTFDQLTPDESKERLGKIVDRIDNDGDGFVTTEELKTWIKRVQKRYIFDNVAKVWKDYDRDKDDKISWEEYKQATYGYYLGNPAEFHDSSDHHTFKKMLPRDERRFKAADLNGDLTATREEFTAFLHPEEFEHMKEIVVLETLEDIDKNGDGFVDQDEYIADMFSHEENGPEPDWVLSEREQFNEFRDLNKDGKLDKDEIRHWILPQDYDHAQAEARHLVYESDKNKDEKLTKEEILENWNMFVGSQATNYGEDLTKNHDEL

[7] = target: T7, HeLa cell extract proteins (Homo sapiens, UniProt Q9Y244)
T7 construct: endogenous in cells; host or cells: HeLa cell extract
T7 sequence (Q9Y244 1-141): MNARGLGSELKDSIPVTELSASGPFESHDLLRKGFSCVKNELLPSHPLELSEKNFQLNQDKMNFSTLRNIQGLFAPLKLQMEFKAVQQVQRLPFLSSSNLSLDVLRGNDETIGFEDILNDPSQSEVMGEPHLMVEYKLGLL

[8] = HeLa, protein LGALS3BP (GALECTIN-3-BINDING PROTEIN PRECURSOR)

Nc1nc2c(c(=O)[nH]1)N(C=O)C(CNc1ccc(C(=O)N[C@@H](CCC(=O)O)C(=O)O)cc1)CN2 (stereo partly shown) [LEU, leucovorin]
fold changes relative to vehicle control ([1]; protein HERC2, HeLa): 1.09 | fold changes relative to vehicle control ([2]; protein ANXA1, HeLa): 0.81 | fold changes relative to vehicle control ([3]; HeLa, protein TCP1): 1.04 | fold changes relative to vehicle control [4, 8]: 1.08 | fold changes relative to vehicle control ([5]; HeLa, captured protein MTAP): 1.13 | fold changes relative to vehicle control ([6]; HeLa, protein RCN1): 0.91 | fold changes relative to vehicle control ([7]; protein POMP, HeLa): 0.72

NCCCNc1ccc(C(=O)NC(CCC(=O)O)C(=O)O)cc1 (stereo not shown) [compound 7]
fold changes relative to vehicle control ([1]; protein HERC2, HeLa): 1.09 | fold changes relative to vehicle control ([2]; protein ANXA1, HeLa): 0.87 | fold changes relative to vehicle control ([3]; HeLa, protein TCP1): 1.07 | fold changes relative to vehicle control [4, 8]: 1.09 | fold changes relative to vehicle control ([5]; HeLa, captured protein MTAP): 1.01 | fold changes relative to vehicle control ([6]; HeLa, protein RCN1): 1.02 | fold changes relative to vehicle control ([7]; protein POMP, HeLa): 0.85

CCCCCCOc1cccc(Cc2cnc(N)nc2N)c1 [compound 2]
fold changes relative to vehicle control ([1]; protein HERC2, HeLa): 0.83 | fold changes relative to vehicle control ([2]; protein ANXA1, HeLa): 1.86 | fold changes relative to vehicle control ([3]; protein TCP1, HeLa): 1.65 | fold changes relative to vehicle control ([4]; protein LGALS3BP, HeLa): 0.95 | fold changes relative to vehicle control ([5]; protein MTAP, HeLa): 0.78 | fold changes relative to vehicle control ([6]; captured protein RCN1, HeLa): 1.05 | fold changes relative to vehicle control ([7]; captured protein POMP, HeLa): 0.89

CCCCCCOc1ccc(Cc2cnc(N)nc2N)cc1 [compound 1]
fold changes relative to vehicle control ([1]; protein HERC2, HeLa): 1 | fold changes relative to vehicle control ([2]; protein ANXA1, HeLa): 1.21 | fold changes relative to vehicle control ([3]; protein TCP1, HeLa): 1.22 | fold changes relative to vehicle control ([4]; protein LGALS3BP, HeLa): 0.97 | fold changes relative to vehicle control ([5]; protein MTAP, HeLa): 0.9 | fold changes relative to vehicle control ([6]; captured protein RCN1, HeLa): 0.9 | fold changes relative to vehicle control ([7]; captured protein POMP, HeLa): 0.66

Nc1nc2cccc(-c3ccccc3)c2n1Cc1ccc(Cl)c(Cl)c1 [compound 3]
fold changes relative to vehicle control ([1]; protein HERC2, HeLa): 1.08 | fold changes relative to vehicle control ([2]; protein ANXA1, HeLa): 0.86 | fold changes relative to vehicle control ([3]; protein TCP1, HeLa): 1.09 | fold changes relative to vehicle control ([4]; protein LGALS3BP, HeLa): 1.07 | fold changes relative to vehicle control ([5]; protein MTAP, HeLa): 0.99 | fold changes relative to vehicle control ([6]; captured protein RCN1, HeLa): 0.89 | fold changes relative to vehicle control ([7]; captured protein POMP, HeLa): 0.86

NCCOCCOCC(=O)Nc1nc2ncc(CNc3ccc(C(=O)NC(CCC(=O)O)C(=O)O)cc3)nc2c(=O)[nH]1 (stereo not shown) [compound 6]
fold changes relative to vehicle control ([1]; protein HERC2, HeLa): 1.07 | fold changes relative to vehicle control ([2]; protein ANXA1, HeLa): 1.24 | fold changes relative to vehicle control ([3]; HeLa, protein TCP1): 1.32 | fold changes relative to vehicle control [4, 8]: 1.02 | fold changes relative to vehicle control ([5]; HeLa, captured protein MTAP): 0.95 | fold changes relative to vehicle control ([6]; HeLa, protein RCN1): 1.11 | fold changes relative to vehicle control ([7]; protein POMP, HeLa): 0.86

Nc1nc2[nH]cc(CCc3ccc(C(=O)N[C@@H](CCC(=O)O)C(=O)O)cc3)c2c(=O)[nH]1 [PTX, pemetrexed]
fold changes relative to vehicle control [1]: 1 | fold changes relative to vehicle control [2]: 0.98 | fold changes relative to vehicle control [3]: 1.08 | fold changes relative to vehicle control [4]: 1.13 | fold changes relative to vehicle control [5]: 0.98 | fold changes relative to vehicle control [6]: 1.02 | fold changes relative to vehicle control [7]: 0.83
